From patent US20220242846A1, “ISOINDOLINONE COMPOUNDS” (Monte Rosa Therapeutics AG, priority 2019, published 2022)
Like-named read-outs stand apart in the source and are kept apart here.

What was measured:
GSPT1 = GSPT1 (Homo sapiens, UniProt P15170+Q96SW2); experiment: Immunofluorescence assay for GSPT1 degradation in CAL-51 cells; assay type: cell-based; set-up: CAL-51 cells were purchased from DSMZ (cat. Number ACC302); endogenous in cells; host or cells: CAL-51 (DSMZ ACC302); settings: compound treatment 6 hours
Procedure: CAL-51 cells were purchased from DSMZ (cat. Number ACC302), sub-cultured in 90% Dulbecco's MEM (4.5 g/L glucose, Gibco 11965) +10% heat inactivated FBS (BioConcept, 2-01F136I) and incubated at 37° C., 5% CO2. For the assay, imaging microtiterplate Cell Carrier 96 Ultra (Perkin Elmer 6055302) were pre-coated with Fibronectin (Sigma F085, 300 at 0.2 μg/ml) in PBS (1000, Gibco 14190) for 45 min at room temperature, rinsed with PBS and CAL-51 cells (30K cells/well) were plated and let to adhere overnight. Cells were treated with compounds typically using a serial dilution ranging from 30 μM to 0.1 nM for 6 hours. Compounds were stored at 10 mM DMSO stocks. Vehicle (DMSO), positive (CC-885, 10 μM) and rescue controls (positive control plus 0.2 μM bortezomib) were also included at this stage. Cells were subsequently rinsed with PBS and fixed in 10% Formalin solution (50 μl, Sigma HT5011)) for 20 mins at room temperature. Following three consecutive PBS washes (100 μl), cells were permeabilized in 0.1% Triton X-100 in PBS (Sigma 93443, 50 μl) for 15 mins at room temperature. Following three further PBS washes, 50 μl blocking buffer (1% BSA, Sigma A4503, in PBS) was added for 45 min for signal-to-noise reduction. Primary antibody (human GSPT1, Sigma HPA052488) was diluted in blocking buffer (dil. 1/300, 35 μl/well) and incubated with the cells overnight at 4° C. After three PBS washes, Alexa-fluor 488 coupled secondary antibodies (Invitrogen, A32731, dil. 1/1000), Alexa-fluor 647-Phalloïdin (Invitrogen, A22287, dil. 1/200) and DAPI (Thermo, #62248, dil.1/1000) were diluted in blocking buffer and incubated with the samples for 2 hours at room temperature. After three final PBS washes, samples were conserved in 1000 PBS in the dark, until measurement. Image acquisition was performed on the Operetta High-Content Imager (Perkin-Elmer). Fluorescence intensity of Alexa-Fluor 488 (GSPT1), Alexa-Fluor 647 (Actin) and DAPI (Nucleus) were measured. For the determination of GSPT1 DC50 values, a custom algorithm implemented in the PerkinElmer image analysis software Harmony-Acapella® was developed. After user-defined setting of adjustment parameters, the analysis was run identically without human intervention for all image fields. DAPI staining of the nuclei was used to determine the location of cells using standard nuclei detection modules. Segmentation artifacts were removed by threshold-based filters for area, roundness and intensity. The outline of the cells was determined analogously from the sum of the normalized, smoothed DAPI and Actin channel, starting from each nucleus. The Alexa-Fluor 488 (GSPT1) signal intensity in each cell was finally measured, in order to obtain a Mean intensity per cell. GSPT1 degradation (DC50) was calculated after normalization to controls and data import in CDD vault Database, using non-linear regression. Activity for GSPT1 Degradation Table 3 assigns each compound a code indicating the ability for GSPT1 degradation: A, B or C. According to the code, A represents a DC50 value of ≤100 nM, B represents a DC50 value >100 nM and ≤300 nM and C represents a DC50 value of >300 nM.

[1] = target: T1, Full length wild-type cereblon CRBN (Homo sapiens, UniProt Q96SW2); experiment: Fluorescence polarization (FP) assay indicating cereblon binding; settings: CRBN 80.0 nM, fluorescent probe 5 nM, FP measured after 12 hours; read-out: rFP IC50
T1 construct: Full length wild-type cereblon CRBN (80.0 nM, 10 μL) was incubated in assay buffer
Excerpt: Protocol for Fluorescent Polarization Assay
Compound activity was monitored in a fluorescence polarization (FP) homogeneous assay using 1-[5-({2-[2-(2-{[2-(2,6-dioxopiperidin-3-yl)-1,3-dioxo-2,3-dihydro-1H-isoindol-4-yl]oxy}acetamido)ethoxy]ethyl}carbamoyl)pentyl]-3,3-dimethyl-2-[(1E,3E)-5-[(2E)-1,3,3-trimethyl-5-sulfo-2,3-dihydro-1H-indol-2-ylidene]penta-1,3-dien-1-yl]-3H-indol-1-ium-5-sulfonate as a fluorescent probe. Unless otherwise stated, all reagents were purchased from Sigma Aldrich. Enzymatic reactions were conducted in Perkin-Elmer Black 384 well ProxiPlate Plus (catalogue no. 6008269) in 10 μL total volume. Full length wild-type cereblon CRBN (80.0 nM, 10 μL) was incubated in assay buffer containing 20 mM HEPES (pH 8.0), […], 0.5 mM TCEP and 0.05% Tween 20 in the presence or absence of compound (300 nL). Inhibitors were stored as 10 mM DMSO stocks in an inert environment (low humidity, dark, low oxygen, room temperature) using the Storage Pod System. Compounds and DMSO were dispensed using the Echo E5XX (Labcyte Inc. USA) to give concentrations from 300 to 0.937 or 3000 to 9.3 nM in a 12 data point curve. […] Following incubation at room temperature for […], the assay was initiated by dispensing the probe to a final concentration of 5 nM (2.5 nL of a 20 μM stock) using the Echo E5XX. FP was measured after a period of 12 hours using a Pherastar plate reader (BMG Labtech, Germany) exciting at 590 nm and measuring the amount of parallel and perpendicular light at 675 nm. The FP signal was subsequently normalized to the no-compound control (i.e., DMSO). Analysis and IC50 values were derived using Dotmatics (Dotmatics UK) software.

[2] = read-out: Code: activity for GSPT1 degradation (DC50)
[3] = GSPT1 degradation, read-out: DC50

T1 sequence (Q96SW2 whole entry): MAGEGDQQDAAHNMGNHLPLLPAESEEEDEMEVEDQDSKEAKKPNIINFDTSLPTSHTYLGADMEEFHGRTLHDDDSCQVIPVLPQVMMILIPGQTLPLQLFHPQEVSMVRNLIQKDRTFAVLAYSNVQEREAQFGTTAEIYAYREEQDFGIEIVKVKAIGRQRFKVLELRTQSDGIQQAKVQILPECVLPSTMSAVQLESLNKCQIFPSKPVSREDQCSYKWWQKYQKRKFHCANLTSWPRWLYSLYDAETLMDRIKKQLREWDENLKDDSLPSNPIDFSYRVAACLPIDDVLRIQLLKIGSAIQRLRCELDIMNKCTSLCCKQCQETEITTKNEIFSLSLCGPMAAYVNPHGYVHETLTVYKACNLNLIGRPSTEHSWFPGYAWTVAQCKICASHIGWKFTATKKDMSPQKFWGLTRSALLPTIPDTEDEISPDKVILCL
GSPT1, sequence (P15170 whole entry): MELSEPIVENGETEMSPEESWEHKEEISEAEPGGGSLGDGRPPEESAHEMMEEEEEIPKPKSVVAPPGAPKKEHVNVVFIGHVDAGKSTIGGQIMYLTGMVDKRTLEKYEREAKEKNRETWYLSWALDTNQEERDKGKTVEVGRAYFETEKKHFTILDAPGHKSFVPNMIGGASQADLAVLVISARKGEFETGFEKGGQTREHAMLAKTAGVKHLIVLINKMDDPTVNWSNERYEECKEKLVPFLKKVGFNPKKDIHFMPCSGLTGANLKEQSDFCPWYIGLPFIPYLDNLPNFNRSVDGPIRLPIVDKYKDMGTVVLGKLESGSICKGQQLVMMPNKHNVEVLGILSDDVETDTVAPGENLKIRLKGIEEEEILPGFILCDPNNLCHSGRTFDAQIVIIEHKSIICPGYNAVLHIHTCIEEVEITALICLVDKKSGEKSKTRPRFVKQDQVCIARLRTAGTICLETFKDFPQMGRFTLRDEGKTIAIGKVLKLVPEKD
GSPT1, sequence (Q96SW2 whole entry): as the sequence (Q96SW2 whole entry) above
GSPT1, sequence (Q16531 2-1140 partner limits assumed): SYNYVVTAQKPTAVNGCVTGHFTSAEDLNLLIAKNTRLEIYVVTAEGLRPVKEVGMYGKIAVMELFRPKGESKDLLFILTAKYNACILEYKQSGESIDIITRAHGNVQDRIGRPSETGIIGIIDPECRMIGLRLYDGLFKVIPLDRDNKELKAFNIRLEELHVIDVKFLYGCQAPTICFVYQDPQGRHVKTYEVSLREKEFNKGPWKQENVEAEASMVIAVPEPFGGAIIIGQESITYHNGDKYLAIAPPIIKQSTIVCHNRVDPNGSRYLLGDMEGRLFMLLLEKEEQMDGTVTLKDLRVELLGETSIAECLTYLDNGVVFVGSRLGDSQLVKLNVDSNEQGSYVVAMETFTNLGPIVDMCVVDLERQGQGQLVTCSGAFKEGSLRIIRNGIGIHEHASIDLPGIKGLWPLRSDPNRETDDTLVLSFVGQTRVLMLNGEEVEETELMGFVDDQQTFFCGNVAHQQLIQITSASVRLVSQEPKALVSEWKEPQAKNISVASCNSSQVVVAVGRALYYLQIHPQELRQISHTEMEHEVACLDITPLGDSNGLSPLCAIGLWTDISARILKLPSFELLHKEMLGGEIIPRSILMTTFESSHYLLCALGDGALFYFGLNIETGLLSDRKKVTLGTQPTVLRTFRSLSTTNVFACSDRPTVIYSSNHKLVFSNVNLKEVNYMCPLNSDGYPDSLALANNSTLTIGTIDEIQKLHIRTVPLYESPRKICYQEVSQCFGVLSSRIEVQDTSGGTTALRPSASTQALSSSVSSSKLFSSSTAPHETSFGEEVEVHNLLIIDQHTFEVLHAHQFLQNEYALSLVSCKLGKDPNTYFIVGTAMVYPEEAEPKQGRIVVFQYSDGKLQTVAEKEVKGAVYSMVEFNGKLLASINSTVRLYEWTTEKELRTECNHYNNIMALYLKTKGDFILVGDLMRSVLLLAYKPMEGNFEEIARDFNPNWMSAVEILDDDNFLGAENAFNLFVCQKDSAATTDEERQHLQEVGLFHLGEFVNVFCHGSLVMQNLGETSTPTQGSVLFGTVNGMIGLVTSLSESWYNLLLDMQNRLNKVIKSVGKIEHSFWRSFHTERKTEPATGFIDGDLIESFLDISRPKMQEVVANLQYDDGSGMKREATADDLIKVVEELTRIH

| DC50 (GSPT1; [2]) [nM] | IC50 [1] [nM] | DC50 (GSPT1; [3]) [nM] | Structure (SMILES) |
| --- | --- | --- | --- |
| 100 to 300 | 581 | 176 | Cc1c(Cl)cc(NC(=O)NCc2ccc3c(c2)C(=O)N(C2CCC(=O)NC2=O)C3)cc1C12CC1CN(C)C2 (centres unmarked) [Compound 155] |
| > 300 | 302 |  | O=C1CCC(N2Cc3ccc(CNC(=O)Nc4cccc(OC(=O)CN5CCOCC5)c4)cc3C2=O)C(=O)N1 (centres unmarked) [Compound 110] |
| > 300 | 252 |  | Cc1c(Cl)cc(NC(=O)NCc2ccc3c(c2)C(=O)N(C2CCC(=O)NC2=O)C3)cc1CN1CCC(N(C)C)CC1 (centres unmarked) [Compound 133] |
| > 300 | 1840 |  | O=C1CCC(N2Cc3ccc(CNC(=O)Nc4ccc5c(c4)OCO5)cc3C2=O)C(=O)N1 (centres unmarked) [Compound 153] |
| > 300 | 1130 |  | O=C1CCC(N2Cc3ccc(CNC(=O)Nc4cc(C(F)(F)F)ns4)cc3C2=O)C(=O)N1 (centres unmarked) [Compound 149] |
| > 300 | 394 |  | Cc1c(Cl)cc(NC(=O)NCc2ccc3c(c2)C(=O)N(C2CCC(=O)NC2=O)C3)cc1OCCN(C)C (centres unmarked) [Compound 134] |
| > 300 | 1630 |  | O=C1CCC(N2Cc3ccc(CNC(=O)Nc4cc(F)cc(OC(F)(F)F)c4)cc3C2=O)C(=O)N1 (centres unmarked) [Compound 165] |
| > 300 | 919 |  | Nc1ccc(NC(=O)NCc2ccc3c(c2)C(=O)N(C2CCC(=O)NC2=O)C3)cc1 (centres unmarked) [Compound 81] |
| > 300 | 404 |  | O=C1CCC(N2Cc3ccc(CNC(=O)Nc4cc[nH]c4)cc3C2=O)C(=O)N1 (centres unmarked) [Compound 98] |
| > 300 | 272 |  | O=C1CCC(N2Cc3ccc(CNC(=O)Nc4cncs4)cc3C2=O)C(=O)N1 (centres unmarked) [Compound 103] |
| > 300 | 139 |  | Cn1ccc(-c2cccc(NC(=O)NCc3ccc4c(c3)C(=O)N(C3CCC(=O)NC3=O)C4)c2)n1 (centres unmarked) [Compound 116] |
| > 300 | 389 |  | O=C1CCC(N2Cc3ccc(CNC(=O)Nc4cc[nH]n4)cc3C2=O)C(=O)N1 (centres unmarked) [Compound 102] |
| > 300 | 315 |  | O=C1CCC(N2Cc3ccc(CNC(=O)Nc4cccs4)cc3C2=O)C(=O)N1 (centres unmarked) [Compound 91] |
| > 300 | 283 |  | Cc1nccn1-c1cccc(NC(=O)NCc2ccc3c(c2)C(=O)N(C2CCC(=O)NC2=O)C3)c1 (centres unmarked) [Compound 113] |
| > 300 | 317 |  | CN(C)c1ccc(NC(=O)NCc2ccc3c(c2)C(=O)N(C2CCC(=O)NC2=O)C3)cc1 (centres unmarked) [Compound 79] |
| > 300 | 367 |  | O=C1CCC(N2Cc3ccc(CNC(=O)Nc4cscn4)cc3C2=O)C(=O)N1 (centres unmarked) [Compound 99] |

Further lines, the compound ahead of its results:

| Structure (SMILES) | DC50 (GSPT1; [2]) [nM] | IC50 [1] [nM] | DC50 (GSPT1; [3]) [nM] |
| --- | --- | --- | --- |
| Cc1cc(NC(=O)NCc2ccc3c(c2)C(=O)N(C2CCC(=O)NC2=O)C3)cc(C)n1 (centres unmarked) [Compound 158] | > 300 | 1440 |  |
| O=C1CCC(N2Cc3ccc(CNC(=O)Nc4cccc(OC5CCNCC5)c4)cc3C2=O)C(=O)N1 (centres unmarked) [Compound 111] | > 300 | 240 |  |
| O=C1CCC(N2Cc3ccc(CNC(=O)Nc4cccc(-c5ncc[nH]5)c4)cc3C2=O)C(=O)N1 (centres unmarked) [Compound 112] | > 300 | 270 |  |
| Nc1cccc(NC(=O)NCc2ccc3c(c2)C(=O)N(C2CCC(=O)NC2=O)C3)c1 (centres unmarked) [Compound 80] | > 300 | 515 |  |
| Cc1c(Cl)cc(NC(=O)NCc2ccc3c(c2)C(=O)N(C2CCC(=O)NC2=O)C3)cc1OCCN1CCOCC1 (centres unmarked) [Compound 127] | ≤ 100 | 261 |  |
| Cc1cc(Cl)c(NC(=O)NCc2ccc3c(c2)C(=O)N(C2CCC(=O)NC2=O)C3)c(C)c1Cl (centres unmarked) [Compound 96] | > 300 | 222 |  |
| O=C1CCC(N2Cc3ccc(CNC(=O)Nc4ccncc4)cc3C2=O)C(=O)N1 (centres unmarked) [Compound 104] | > 300 | 234 |  |
| Cc1ncc(NC(=O)NCc2ccc3c(c2)C(=O)N(C2CCC(=O)NC2=O)C3)cc1Cl (centres unmarked) [Compound 157] | > 300 | 1520 |  |
| Cn1ccc(NC(=O)NCc2ccc3c(c2)C(=O)N(C2CCC(=O)NC2=O)C3)c1 (centres unmarked) [Compound 128] | > 300 | 302 |  |
| O=C1CCC(N2Cc3ccc(CNC(=O)Nc4ccon4)cc3C2=O)C(=O)N1 (centres unmarked) [Compound 94] | > 300 | 408 |  |
| O=C1CCC(N2Cc3ccc(CNC(=O)Nc4cn[nH]c4)cc3C2=O)C(=O)N1 (centres unmarked) [Compound 108] | > 300 | 661 |  |
| O=C1CCC(N2Cc3ccc(CNC(=O)Nc4ccsc4)cc3C2=O)C(=O)N1 (centres unmarked) [Compound 84] | > 300 | 348 |  |
| Cc1nc(NC(=O)NCc2ccc3c(c2)C(=O)N(C2CCC(=O)NC2=O)C3)sc1C (centres unmarked) [Compound 150] | > 300 | 304 |  |
| Cc1c(Cl)cc(NC(=O)NCc2ccc3c(c2)C(=O)N(C2CCC(=O)NC2=O)C3)cc1N1CCOCC1 (centres unmarked) [Compound 122] | ≤ 100 | 657 |  |
| CN(C)c1cccc(NC(=O)NCc2ccc3c(c2)C(=O)N(C2CCC(=O)NC2=O)C3)c1 (centres unmarked) [Compound 89] | 100 to 300 | 225 | 198 |
| Cc1c(Cl)cc(NC(=O)NCc2ccc3c(c2)C(=O)N(C2CCC(=O)NC2=O)C3)cc1C[C@H]1CO[C@H](C)OC1 (some centres unmarked) [Compound 141] | ≤ 100 | 352 |  |
| O=C1CCC(N2Cc3ccc(CNC(=O)Nc4ccccn4)cc3C2=O)C(=O)N1 (centres unmarked) [Compound 123] | > 300 | 570 |  |
| Cc1c(Cl)cc(NC(=O)NCc2ccc3c(c2)C(=O)N(C2CCC(=O)NC2=O)C3)cc1OCCCN(C)C (centres unmarked) [Compound 117] | > 300 | 152 |  |
| O=C1CCC(N2Cc3ccc(CNC(=O)Nc4ccc(C(F)F)cc4)cc3C2=O)C(=O)N1 (centres unmarked) [Compound 114] | > 300 | 443 |  |
| O=C1CCC(N2Cc3ccc(CNC(=O)Nc4cccc(OC(F)(F)F)c4)cc3C2=O)C(=O)N1 (centres unmarked) [Compound 90] | ≤ 100 | 471 |  |
| O=C1CCC(N2Cc3ccc(CNC(=O)Nc4cc(Cl)cc(CN5CCOCC5)c4)cc3C2=O)C(=O)N1 (centres unmarked) [Compound 119] | ≤ 100 | 408 |  |
| Cc1ccc(NC(=O)NCc2ccc3c(c2)C(=O)N(C2CCC(=O)NC2=O)C3)cc1OC(F)F (centres unmarked) [Compound 159] | > 300 | 676 |  |
| Cc1cc(C)c(NC(=O)NCc2ccc3c(c2)C(=O)N(C2CCC(=O)NC2=O)C3)c(Cl)c1Cl (centres unmarked) [Compound 100] | > 300 | 178 |  |
